From ChEMBL document CHEMBL1127587, “Modeling the anticarcinogenic action of retinoids by making use of the OASIS method. 3. Inhibition of the induction of ornithine decarboxylase by arotinoids” (J Med Chem, 1994)

Assay: Tested for experimental arotinoid inhibitory dose

| Compound | -Log ID50 |
| --- | --- |
| C/C(=C\c1ccc(C(=O)O)cc1)c1ccc2c(c1)C(C)(C)CCO2 | 8.57 |
| C/C(=C\c1ccc(C(=O)O)cc1)c1ccc2c(c1)C(C)(C)CC[C@H]2C | 10.22 |
| C/C(=C\c1ccc(C(=O)O)cc1)c1ccc2c(c1)CCCC2(C)C | 9.22 |
| C/C(=C\c1ccc(C(=O)O)cc1)c1ccc2c(c1)C(C)(C)CC[C@@H]2C | 10.3 |
| C/C(=C\c1ccc(C(=O)O)cc1)c1ccc2c(c1)C1CCC2C1 (stereo not given) | 8.51 |
| C/C(=C\c1ccc(C(=O)O)cc1)c1ccc2c(c1)C(C)(C)CCS2 | 9.3 |
| C/C(=C(/F)c1ccc(C(=O)O)cc1)c1ccc2c(c1)C(C)(C)CCC2(C)C | 10.1 |
| C/C(=C\c1ccc(C(=O)O)cc1)c1ccc2c(c1)SCCC2(C)C | 9.22 |
| C/C(=C\c1ccc2c(c1)C(C)(C)CCC2(C)C)c1ccc(C(=O)O)cc1 | 10.52 |
| C/C(=C(/F)c1ccc(C(=O)O)cc1)c1cc2c(s1)CCCC2(C)C | 9.22 |
| C/C(=C\c1ccc(C(=O)O)cc1)c1ccc2c(c1)C(C)(C)CCC2 | 8.96 |
| C/C(=C\c1ccc(C(=O)O)cc1)c1ccc(SCCC(C)C)cc1 | 6.77 |
| C/C(=C\c1ccc(C(=O)O)cc1)c1ccc2c(c1)C(C)(C)CCC2(C)C | 10.52 |
| C/C(=C\c1ccc(C(=O)O)cc1)c1ccc2c(c1)C(C)(C)CCC2C (stereo not given) | 10.15 |
| COc1ccc(/C(C)=C/c2ccc(C(=O)O)cc2)cc1C(C)(C)C | 9.4 |
| C/C(=C\c1ccc(C(=O)O)cc1)c1cc2c(s1)CCCC2(C)C | 10 |
| CC1(C)CCC(C)(C)c2cc3cc(-c4ccc(C(=O)O)cc4)ccc3cc21 | 10.15 |
| C/C(=C\c1ccc2c(c1)C(C)(C)CCS2)c1ccc(C(=O)O)cc1 | 9.22 |
| C/C(=C\c1ccc(C(=O)O)cc1)c1ccc2c(C)c(C)c(C)c(C)c2c1 | 8.8 |
| C/C(=C\c1ccc(C(=O)O)cc1)c1ccc2ccc(C)c(C)c2c1 | 6.7 |
